Experiments:
[1] = test system: bronchospheres (human bronchial epithelial cells); assay: Bronchosphere assay of secreted recombinant human proteins, qPCR of cell type markers and immunostaining; format: cell-based
Experimental: (§1) Human bronchial epithelial (HBE) cells and culture media were obtained from Lonza. Air-liquid interface cultures using passage 2 (P2) cells were performed as previously described (Danahay, H. et al., American journal of physiology. Lung cellular and molecular physiology 282, L226-236 (2002)). For three-dimensional culturing of HBE cells, P1 cells were trypsinized and resuspended (30,000 cells/ml) in HBE differentiation media containing 5% growth factor-reduced Matrigel (BD Biosciences). 20 μl of suspension was plated in each well of a 384-well plate (Greiner) pre-coated with 10 μl of a 25% solution of Matrigel (BD Biosciences) in HBE differentiation media. Wells were fed or treated at day 2 and day 8 of culture by adding 30 μl of differentiation media containing the appropriate treatment. Three-dimensional cultures were analyzed at the time points indicated.
Immunofluorescence of HBEC bronchospheres was performed as described previously for MCF10A cysts (Debnath, J. et al., Methods 30, 256-268 (2003) with the following modifications. After incubation with fluorescence-conjugated secondary antibodies, DNA was stained with a 1:1 mix of PBS and ProLong gold antifade containing DAPI. Confocal microscopy was performed at room temperature on a microscope (Zeiss LSM510 Meta) using an EC Plan-Neofluar 10×/0.30 dry objective (Zeiss), an EC Plan-Neofluor 20×/0.5 dry objective (Zeiss), a C-Apochromat 40×/1.2 W corr (Zeiss), or a C-Apochromat 63×/1.2 W Corr objective (Zeiss). Images were collected with Zen confocal software (Zeiss). Scale bars were added, and images were processed using Zen (Zeiss) and Photoshop (Adobe). Air-liquid interface (ALI) cultures were processed for immunofluorescence analysis after 14 days of culture at ALI by rinsing the apical surface of each filter with PBS, and then fixing in 4% paraformaldehyde for 4 hours. Filters were washed with IF buffer (130 mM NaCl, 7 mM Na2HPO4, 3.5 mM NaH2PO4, 7.7 mM NaN3, 0.1% bovine serum albumin, 0.2% Triton X-100, 0.05% Tween-20), blocked with IF wash containing 10% goat serum, and stained with primary antibody in IF wash containing 10% goat serum overnight at 4° C. Secondary antibodies were used at a 1:200 dilution in IF buffer containing 10% goat serum. To quantify the total staining area of ALI cultures, 10×13 images were collected with a plan Neofluar 10×0.3 NA Ph1 objective (EC; Carl Zeiss, Inc.) on a microscope (Axiovert 200; Carl Zeiss, Inc.) equipped with a motorized stage and a camera (Orca-ER-1394; Hamamatsu Photonics) controlled by Axiovision software (Carl Zeiss, Inc.) and used to generate a single composite image using the MOSAIX function in Zeiss Axiovision. Quantification of the total staining area was performed with ImageJ. Two to three regions of each ALI culture were punched out with a 4 mm biopsy punch (Miltex, Inc.) and mounted in ProLong gold antifade containing DAPI for imaging by confocal microscopy on a microscope (Axiovert 200; Carl Zeiss, Inc.) equipped with a motorized stage, a Yokogawa CSU-X1 spinning disc head, and an EMCCD camera (Evolve 512, Photometrics), with a Plan-Apochromat 100×/1.4 Oil DIC objective (Zeiss). Cells positive for MUC5AC, MUC5B, or cilia (acetylated α-Tubulin) staining were counted manually. For time-lapse video microscopy, HBECs were imaged at the indicated times during bronchosphere development at 37° C. with a plan Neofluar 10×0.3 NA Ph1 objective (EC; Carl Zeiss, Inc.). Images were taken every 5 min for the indicated time period. Annotations (time stamp and scale bar) were added and videos were assembled using Axiovision software.
RNA was isolated from 3D bronchosphere cultures with Trizol (Invitrogen), using manufacturer's specifications. To isolate RNA from mouse tissue, approximately 20 mg of tissue was placed in a 1.5 ml eppendorf tube with 1 ml of Buffer RLT Plus (Qiagen). A 5 mm stainless steel bead (Qiagen) was added to the tube, and the tissue was sheared using a Tissue Lyser II (Qiagen).

airway basal cells = assay: Air-liquid interface (ALI) cultures of airway basal cells treated with IL-17A; format: cell-based, human; conditions: IL-17A from day 7 (day 0 at ALI), analysed day 21; FIGS. 3d, 3e
Experimental: as §1, with “Wells were fed or treated at day 2 and day 8 of culture by adding 30 μl of differentiation media containing the appropriate treatment.” left out
(§2) Immunofluorescence of HBEC bronchospheres was performed as described previously for MCF10A cysts (Debnath, J. et al., Methods 30, 256-268 (2003) with the following modifications. After incubation with fluorescence-conjugated secondary antibodies, DNA was stained with a 1:1 mix of PBS and ProLong gold antifade containing DAPI. Confocal microscopy was performed at room temperature on a microscope (Zeiss LSM510 Meta) using an EC Plan-Neofluar 10×/0.30 dry objective (Zeiss), an EC Plan-Neofluor 20×/0.5 dry objective (Zeiss), a C-Apochromat 40×/1.2 W corr (Zeiss), or a C-Apochromat 63×/1.2 W Corr objective (Zeiss). […]

[2] = test system: IL-13 driven goblet cell metaplasia; assay: IL-13 mouse model, co-administration of anti-Notch2 antibodies; format: in vivo
Experimental: (§3) RNA was isolated from 3D bronchosphere cultures with Trizol (Invitrogen), using manufacturer's specifications. To isolate RNA from mouse tissue, approximately 20 mg of tissue was placed in a 1.5 ml eppendorf tube with 1 ml of Buffer RLT Plus (Qiagen). A 5 mm stainless steel bead (Qiagen) was added to the tube, and the tissue was sheared using a Tissue Lyser II (Qiagen). RNA from the sheared tissue was purified using the RNeasy Plus Mini Kit (Qiagen), using manufacturer's specifications. TaqMan Reverse Trascription Reagents (Invitrogen) were used to generate cDNA from 1 μg of total RNA. Quantitative PCR was performed on a ViiA7 Real-Time PCR System (Applied Biosystems), using 40 ng of cDNA per reaction with the following Taqman probes (Applied Biosystems): MUC5AC, Hs01365601_m1; MUC5B, Hs00861588_m1; FOXA3, Hs00270130_m1; FOXJ1, Hs00230964_m1; DNAI2, Hs01001544_m1; TP63, Hs00978340_m1; ITGA6, Hs01041011_m1; GAPDH, Hs99999905_m1; Muc5ac, Mm012718_m1; Foxj1, Mm012367279_m1; Trp63, Mm00495788_m1; Gapdh, Mm99999915_g1.
Female Balb/c mice (20-25 g) were obtained from Charles River (Morgate, UK). Mice were housed under specific pathogen free conditions and were provided with food and water ad libitum. Experiments were performed in accordance with the UK Animals Scientific Procedures Act 1986.
Mice received 0.5 μg of recombinant mouse IL-13 (Ebiosciences, UK) or phosphate-buffered saline (PBS) intranasally on 3 consecutive (days 1, 2, 3). Mice received either 20 mg/kg neutralizing antibody against Notch2 (α-N2 D3 or α-N2 59R5) or control IgG, or PBS intraperitoneally 2 hours before intranasal challenge with either IL-13 or PBS, on days 1 and 3 only. Mice were euthanized 24 hours after the final IL-13 administration. The left lungs were excised, inflated with 10% neutral buffered formalin (NBF) and preserved in NBF. Lungs were embedded in paraffin wax and lung sections were obtained for each animal. Sections were stained with Periodic Acid-Schiff (PAS) stain for mucus.
PAS positive staining was quantified in lung sections using Definiens Image Analysis software. Two distinct lung sections were analyzed per mouse and the total area of PAS positive staining within the sections was determined. The PAS positive staining was normalized to the area of tissue analyzed and represented as ‘Relative Area PAS Positive Mucus (%)’.
Data are expressed as mean±SEM. Statistical significance was determined using a parametric one way ANOVA and Dunnetts post-test. GraphPad Prism (version 5.04) was used to generate graphs and perform statistical analysis. ***p<0.001 denotes statistically significant difference from relevant isotype control group.

[3] = test system: Human bronchial epithelial (HBE) cells; assay: IL-13-driven goblet cell metaplasia in ALI cultures; format: cell-based; conditions: ALI cultures (results not shown)
Experimental: as §1, with “Wells were fed or treated at day 2 and day 8 of culture by adding 30 μl of differentiation media containing the appropriate treatment.” left out
as §2

[4] = test system: Human airway basal cells grown in 3D; assay: IL-13-driven goblet cell metaplasia in 3D bronchospheres, qPCR of cell type markers; format: cell-based
Experimental: as §1
RNA was isolated from 3D bronchosphere cultures with Trizol (Invitrogen), using manufacturer's specifications. […] Quantitative PCR was performed on a ViiA7 Real-Time PCR System (Applied Biosystems), using 40 ng of cDNA per reaction with the following Taqman probes (Applied Biosystems): MUC5AC, Hs01365601_m1; MUC5B, Hs00861588_m1; FOXA3, Hs00270130_m1; FOXJ1, Hs00230964_m1; DNAI2, Hs01001544_m1; TP63, Hs00978340_m1; ITGA6, Hs01041011_m1; GAPDH, Hs99999905_m1; Muc5ac, Mm012718_m1; Foxj1, Mm012367279_m1; Trp63, Mm00495788_m1; Gapdh, Mm99999915_g1.
In order to understand if neutralizing Notch2 could prevent goblet cell metaplasia, a hallmark of several airway diseases including asthma, cystic fibrosis, and COPD, anti-Notch2 antibodies were tested for their effect on IL-13-driven goblet cell metaplasia in 3D bronchospheres. Human airway basal cells were grown in 3D in the presence of vehicle control or IgG, with or without 1 ng/ml IL-13, or increasing concentrations of α-N2 D3 or 59R5 antibodies together with 1 ng/ml of IL-13, and analyzed by qPCR for the expression levels of the indicated goblet cell markers (FIG. 5a), ciliated cell markers (FIG. 5b), and basal cell markers (FIG. 5c).

[5] = test system: Human airway basal cells grown in 3D; assay: 3D bronchosphere cultures treated with Notch receptor-specific blocking antibodies, qPCR of cell type markers; format: cell-based
Experimental: as §1
as §3, with “Mm99999915_g1. […]” for “Mm99999915_g1.”

Substance: IL-17A: secreted, recombinant human protein; cytokine secreted by Th17 cells
- change in expression of at least one cell-type marker, initial screen ([1]; 55 proteins tested at 3.3, 10 and 30 ng/mL): concentration-dependent change
- basal cell markers ([1]; IL-17A, qPCR, FIG. 3c): No significant changes
- levels of goblet cell markers (MUC5AC, MUC5B and FOXA3) ([1]; broader range of IL-17A concentrations, qPCR, FIG. 3a): increased levels
- expression of markers of ciliated cells (FOXJ1 and DNAI2) ([1]; broader range of IL-17A concentrations, qPCR, FIG. 3b): inhibiting
- expression of both of the ciliated cell markers ([1]; markers FOXJ1, DNAI2): attenuated
- expression of at least two of the goblet cell markers ([1]; markers MUC5AC, MUC5B, FOXA3): enhanced
- change in expression of at least one of the cell-type markers, on validation ([1]; validation, expanded concentration range): robust change
- goblet cell population (MUC5AC and MUC5B markers) (airway basal cells): profound expansion
- number of ciliated cells (α-tubulin marker) (airway basal cells): dramatic reduction

Substance: 59R5: anti-Notch2 antagonist IgG1 antibody, heavy chain SEQ ID NO: 5, light chain SEQ ID NO: 6
- effect on basal cell marker Trp63, qPCR of whole lung tissue ([2]; 20 mg/kg i.p. days 1 and 3, FIG. 6e): no effect
- ciliated cell marker Foxj1, qPCR of whole lung tissue ([2]; 20 mg/kg i.p. days 1 and 3, FIG. 6d): concomitant increase
- Muc5ac expression levels, qPCR of whole lung tissue RNA ([2]; 20 mg/kg i.p. days 1 and 3, confirms reduced goblet cell metaplasia, FIG. 6c): verified this observation
- IL-13 driven goblet cell metaplasia (PAS staining of lung sections) ([2]; Balb/c mice, 20 mg/kg antibody i.p. 2 hours before intranasal IL-13, days 1 and 3, FIGS. 6a, 6b): completely blocked
- IL-13-driven goblet cell metaplasia [3]: completely inhibited
- IL-13-driven goblet cell metaplasia (expression of goblet cell markers MUC5AC, MUC5B and FOX3A) ([4]; 1 ng/ml IL-13, increasing antibody concentrations, qPCR, FIG. 5a): completely inhibited
- ciliated cells function (expression of ciliated cell markers FOXJ1 and DNAI2) ([4]; 1 ng/ml IL-13, qPCR, FIG. 5b): partially restored
- effect on basal cells markers p63 and ITGA6 ([4]; 1 ng/ml IL-13, qPCR, FIG. 5c): No effect
- effect on basal cell markers p63 and ITGA6 ([5]; FIG. 4c): Neither antibody showed any significant effect
- goblet cell formation: expression of goblet cell markers MUC5AC, MUC5B and FOXA3 ([5]; compared with IgG control or anti-Notch1 / anti-Notch3 antibodies, FIG. 4a): decreased
- ciliated cell formation: expression of ciliated cells markers FOXJ1 and DNAI2 ([5]; compared with IgG control or anti-Notch1 / anti-Notch3 antibodies, FIG. 4b): increasing

Source: US9944700B2, “Notch2 binding molecules for treating respiratory diseases” (NOVARTIS AG, priority 2013, dated 2018)
